Where a name gives a salt, the structure may show the parent alone. ± gives the standard deviation of the averaged measurements.
Test system: RD
Assay: relative viability vs DMSO control (72 h) (fraction); higher = more viable cells
Outline: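 Sarcoma cell lines were seeded in 384-well plates at densities set to reach 80–90% confluence. After 24 h, 2.5 µl of serially diluted compound was added (source plates 10 mM to 0.0002 mM), and plates were held 72 h at 37 °C, 5% CO2, with 0.1% DMSO vehicle and a 5 µM positive control. Relative viability came from ATPLite readings as percent growth, averaged over up to triplicate wells. Data were rescaled so full viability equals 1 and none equals 0.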

| Compound | relative viability (0.00017 µM) | relative viability (0.00051 µM) | relative viability (0.00152 µM) | relative viability (0.00457 µM) | relative viability (0.01372 µM) | relative viability (0.04115 µM) | relative viability (0.1235 µM) | relative viability (0.3704 µM) | relative viability (1.111 µM) | relative viability (3.333 µM) | relative viability (10 µM) | relative viability (2 pM) | relative viability (5 pM) | relative viability (15 pM) | relative viability (50 pM) | relative viability (0.00014 µM) | relative viability (0.00041 µM) | relative viability (0.0012 µM) | relative viability (0.0037 µM) | relative viability (0.011 µM) | relative viability (200 fM) | relative viability (600 fM) |
| --- | --- | --- | --- | --- | --- | --- | --- | --- | --- | --- | --- | --- | --- | --- | --- | --- | --- | --- | --- | --- | --- | --- |
| COc1cccc2c1C(=O)c1c(O)c3c(c(O)c1C2=O)C[C@@](O)(C(=O)CO)C[C@@H]3O[C@H]1C[C@H](N)[C@H](O)[C@H](C)O1 [Doxorubicin Hydrochloride] | 1.12 ± 0.074 | 1.09 ± 0.068 | 1.12 ± 0.069 | 1.08 ± 0.072 | 1.1 ± 0.028 | 0.892 ± 0.011 | 0.556 ± 0.019 | 0.214 ± 0.015 | 0.0954 ± 0.008 | 0.0741 ± 0.0052 | 0.0196 ± 0.00075 | – | – | – | – | – | – | – | – | – | – | – |
| CO[C@H]1C[C@@H]2CC[C@@H](C)[C@@](O)(O2)C(=O)C(=O)N2CCCC[C@H]2C(=O)O[C@H]([C@H](C)C[C@@H]2CC[C@@H](OP(C)(C)=O)[C@H](OC)C2)CC(=O)[C@H](C)/C=C(\C)[C@@H](O)[C@@H](OC)C(=O)[C@H](C)C[C@H](C)/C=C/C=C/C=C/1C [Ridaforolimus] | 1.06 ± 0.032 | 1.05 ± 0.049 | 0.921 ± 0.01 | 0.847 ± 0.02 | 0.753 ± 0.038 | 0.75 ± 0.036 | 0.764 ± 0.029 | 0.71 ± 0.053 | 0.715 ± 0.071 | 0.701 ± 0.053 | 0.683 ± 0.05 | – | – | – | – | – | – | – | – | – | – | – |
| Cc1cc(C)c(/C=C2\C(=O)Nc3ccccc32)[nH]1 [Semaxanib] | 1.07 ± 0.053 | 1.05 ± 0.042 | 1.06 ± 0.035 | 1.08 ± 0.016 | 1.08 ± 0.028 | 1.088 ± 0.0067 | 1.09 ± 0.037 | 1.09 ± 0.02 | 1.08 ± 0.023 | 1.06 ± 0.046 | 1 ± 0.041 | – | – | – | – | – | – | – | – | – | – | – |
| CN1CCC(COc2cnc(-c3cccc(Cn4nc(-c5cccc(C#N)c5)ccc4=O)c3)nc2)CC1 [Tepotinib] | 1.03 ± 0.049 | 1.1 ± 0.084 | 1.09 ± 0.039 | 1.1 ± 0.055 | 1.12 ± 0.031 | 1.13 ± 0.049 | 1.12 ± 0.093 | 1.14 ± 0.029 | 1.1 ± 0.065 | 1.11 ± 0.031 | 0.941 ± 0.07 | – | – | – | – | – | – | – | – | – | – | – |
| COc1cc2c(Oc3ccc4[nH]c(C)cc4c3F)ncnc2cc1OCCCN1CCCC1 [Cediranib] | 1.09 ± 0.043 | 1.1 ± 0.058 | 1.09 ± 0.015 | 1.15 ± 0.057 | 1.09 ± 0.076 | 1.13 ± 0.046 | 1.1 ± 0.03 | 1.04 ± 0.06 | 1 ± 0.077 | 1.03 ± 0.13 | 0.962 ± 0.078 | – | – | – | – | – | – | – | – | – | – | – |
| C[C@@H](c1ccc2nccn2c1)n1nnc2ncc(-c3cnn(C)c3)nc21 [Volitinib] | 1.11 ± 0.027 | 1.11 ± 0.036 | 1.14 ± 0.03 | 1.12 ± 0.039 | 1.11 ± 0.022 | 1.1 ± 0.02 | 1.14 ± 0.016 | 1.14 ± 0.023 | 1.09 ± 0.017 | 1.07 ± 0.037 | 1.02 ± 0.037 | – | – | – | – | – | – | – | – | – | – | – |
| CC1(C)CNc2cc(NC(=O)c3cccnc3NCc3ccncc3)ccc21 [Motesanib] | 0.967 ± 0.013 | 0.964 ± 0.041 | 0.973 ± 0.046 | 0.96 ± 0.046 | 0.965 ± 0.04 | 0.989 ± 0.051 | 0.962 ± 0.032 | 0.975 ± 0.028 | 0.996 ± 0.056 | 1.03 ± 0.034 | 0.987 ± 0.066 | – | – | – | – | – | – | – | – | – | – | – |
| N#CC[C@H](C1CCCC1)n1cc(-c2ncnc3[nH]ccc23)cn1 [Ruxolitinib] | 0.965 ± 0.052 | 0.972 ± 0.049 | 0.965 ± 0.041 | 0.977 ± 0.059 | 0.97 ± 0.034 | 0.979 ± 0.044 | 0.973 ± 0.051 | 0.965 ± 0.058 | 0.976 ± 0.056 | 0.976 ± 0.092 | 0.895 ± 0.055 | – | – | – | – | – | – | – | – | – | – | – |
| Cc1nc(NC(=O)N2CCC[C@H]2C(N)=O)sc1-c1ccnc(C(C)(C)C(F)(F)F)c1 [Alpelisib] | 1.04 ± 0.032 | 1.068 ± 0.0091 | 1.04 ± 0.056 | 1.07 ± 0.041 | 1.05 ± 0.052 | 1.03 ± 0.1 | 0.932 ± 0.045 | 0.851 ± 0.083 | 0.7 ± 0.055 | 0.594 ± 0.024 | 0.557 ± 0.044 | – | – | – | – | – | – | – | – | – | – | – |
| CN1CCN(c2ccc3nc(-c4c(N)c5c(F)cccc5[nH]c4=O)[nH]c3c2)CC1 [Dovitinib] | 0.963 ± 0.05 | 0.983 ± 0.064 | 0.991 ± 0.072 | 0.985 ± 0.053 | 0.978 ± 0.099 | 0.995 ± 0.074 | 0.998 ± 0.071 | 0.99 ± 0.072 | 0.812 ± 0.073 | 0.632 ± 0.05 | 0.113 ± 0.035 | – | – | – | – | – | – | – | – | – | – | – |
| COc1cc2c(cc1O)CCN[C@]21CS[C@@H]2c3c(OC(C)=O)c(C)c4c(c3[C@H](COC1=O)N1[C@@H]2[C@H]2c3c(cc(C)c(OC)c3O)C[C@@H]([C@@H]1O)N2C)OCO4 [Trabectedin] | – | – | – | – | – | – | – | – | – | – | – | 1.08 ± 0.055 | 1.08 ± 0.068 | 1.08 ± 0.048 | 1 ± 0.045 | 0.678 ± 0.022 | 0.166 ± 0.14 | 0.158 ± 0.0037 | 0.128 ± 0.0033 | 0.104 ± 0.01 | 1.1 ± 0.043 | 1.08 ± 0.015 |
| C=CC(=O)Nc1cccc(Oc2nc(Nc3ccc(N4CCN(C)CC4)cc3)nc3ccsc23)c1 [Olmutinib] | 1.02 ± 0.051 | 1.04 ± 0.045 | 1.03 ± 0.046 | 1.04 ± 0.032 | 1.03 ± 0.068 | 1.03 ± 0.056 | 1.04 ± 0.051 | 1.07 ± 0.058 | 1.01 ± 0.051 | 0.892 ± 0.08 | 0.174 ± 0.025 | – | – | – | – | – | – | – | – | – | – | – |
| CC(C)NC(=O)C1CCC(n2c(NC(=O)c3ccc(F)cc3)nc3ccc(CN4CCC(C(C)(C)O)CC4)cc32)CC1 (centres undefined) [Belizatinib] | 1.1 ± 0.05 | 1.09 ± 0.06 | 1.08 ± 0.079 | 1.09 ± 0.02 | 1.09 ± 0.041 | 1.09 ± 0.025 | 1 ± 0.014 | 0.844 ± 0.058 | 0.456 ± 0.027 | 0.268 ± 0.0066 | 0.122 ± 0.011 | – | – | – | – | – | – | – | – | – | – | – |
| CCN1CCN(Cc2ccc(Nc3ncc(F)c(-c4cc(F)c5nc(C)n(C(C)C)c5c4)n3)nc2)CC1 [Abemaciclib] | 1.12 ± 0.06 | 1.14 ± 0.056 | 1.09 ± 0.05 | 1.11 ± 0.054 | 1.1 ± 0.059 | 1.07 ± 0.081 | 1.06 ± 0.078 | 1.07 ± 0.036 | 1.1 ± 0.072 | 1.04 ± 0.049 | 0.863 ± 0.039 | – | – | – | – | – | – | – | – | – | – | – |
| COc1c(OCCCN2CCOCC2)ccc2c1N=C(NC(=O)c1cnc(N)nc1)N1CCN=C21 [Copanlisib] | 1.07 ± 0.038 | 1.06 ± 0.032 | 1.07 ± 0.082 | 0.77 ± 0.053 | 0.741 ± 0.098 | 0.61 ± 0.01 | 0.438 ± 0.019 | 0.328 ± 0.011 | 0.268 ± 0.013 | 0.225 ± 0.014 | 0.184 ± 0.015 | – | – | – | – | – | – | – | – | – | – | – |
| Cc1nc(-c2cn3c(n2)-c2ccc(-c4cnn(C(C)(C)C(N)=O)c4)cc2OCC3)n(C(C)C)n1 [Taselisib] | 1.11 ± 0.018 | 1.08 ± 0.041 | 1.07 ± 0.037 | 1.06 ± 0.036 | 1.03 ± 0.028 | 0.888 ± 0.027 | 0.687 ± 0.021 | 0.524 ± 0.017 | 0.444 ± 0.027 | 0.426 ± 0.0056 | 0.36 ± 0.026 | – | – | – | – | – | – | – | – | – | – | – |
| O=C(Cc1ccc(-c2ccc(OCCN3CCOCC3)cc2)cn1)NCc1ccccc1 [KX2-391] | 1.03 ± 0.04 | 1.07 ± 0.055 | 1.08 ± 0.04 | 1.07 ± 0.066 | 1.02 ± 0.022 | 0.633 ± 0.022 | 0.346 ± 0.077 | 0.296 ± 0.015 | 0.304 ± 0.0065 | 0.308 ± 0.027 | 0.286 ± 0.034 | – | – | – | – | – | – | – | – | – | – | – |
| C[C@@H]1COCCN1c1cc(-c2ccnn2C)c2ccnc(-c3ccn[nH]3)c2n1 | 1.08 ± 0.059 | 1.09 ± 0.027 | 1.09 ± 0.083 | 1.12 ± 0.065 | 1.1 ± 0.037 | 1.08 ± 0.046 | 0.93 ± 0.03 | 0.627 ± 0.025 | 0.378 ± 0.018 | 0.23 ± 0.017 | 0.188 ± 0.011 | – | – | – | – | – | – | – | – | – | – | – |
| Cc1cnc(Nc2ccc(OCCN3CCCC3)cc2)nc1Nc1cccc(S(=O)(=O)NC(C)(C)C)c1 [Fedratinib] | 1.07 ± 0.031 | 1.09 ± 0.03 | 1.12 ± 0.042 | 1.13 ± 0.048 | 1.12 ± 0.064 | 1.14 ± 0.058 | 1.09 ± 0.09 | 0.785 ± 0.066 | 0.445 ± 0.025 | 0.0678 ± 0.011 | 0.00303 ± 0.0004 | – | – | – | – | – | – | – | – | – | – | – |
